Patent publication US8420657B2 (Novartis AG, priority 2008, dated 2013)
Where two headings read alike, the source gives them in different places.

Tests used:
Assay type in all cases: biochemical
ALK = biological target: T1, ALK (Homo sapiens, UniProt Q9UM73); assay: ALK LanthaScreen TR-FRET kinase phosphorylation assay; settings: recombinant kinase domain
T1 construct: using the recombinant domains of cMet, cKit, ALK and PDGFRalpha kinases
Protocol: (§1) The compounds are assayed in an antibody based kinase phosphorylation assay using the recombinant domains of cMet, cKit, ALK and PDGFRalpha kinases and a generic phospho-tyrosine peptide substrate. LanthaScreen™ is the detection of Time-Resolved Fluorescence Resonance Energy Transfer (TR-FRET) using lanthanide chelates to measure interactions between various binding partners. In a TR-FRET kinase assay, a long-lifetime lanthanide donor species is conjugated to an antibody that specifically binds to a phosphorylated product of a kinase reaction that is labeled with a suitable acceptor fluorophore. This antibody-mediated interaction brings the lanthanide donor and the acceptor into proximity such that resonance energy transfer can take place, resulting in a detectible increase in FRET. The LanthaScreen is run at ambient temperature and terminated by the addition of stop solution, followed by Tb-labeled P-20 antibody. After incubating in the dark, the plates are transferred to a fluorescence reader for counting. The effect of compound on the enzymatic activity is in all assays obtained from the linear progress curves and determined from one reading (end point measurement).

PDGFRalpha = biological target: T2, PDGFRalpha (Homo sapiens, UniProt P16234); assay: PDGFRalpha LanthaScreen TR-FRET kinase phosphorylation assay; settings: recombinant kinase domain, read-out: PDGFRa/IC50
T2 construct: using the recombinant domains of cMet, cKit, ALK and PDGFRalpha kinases
T2 sequence (P16234 593-954 limits assumed, species assumed): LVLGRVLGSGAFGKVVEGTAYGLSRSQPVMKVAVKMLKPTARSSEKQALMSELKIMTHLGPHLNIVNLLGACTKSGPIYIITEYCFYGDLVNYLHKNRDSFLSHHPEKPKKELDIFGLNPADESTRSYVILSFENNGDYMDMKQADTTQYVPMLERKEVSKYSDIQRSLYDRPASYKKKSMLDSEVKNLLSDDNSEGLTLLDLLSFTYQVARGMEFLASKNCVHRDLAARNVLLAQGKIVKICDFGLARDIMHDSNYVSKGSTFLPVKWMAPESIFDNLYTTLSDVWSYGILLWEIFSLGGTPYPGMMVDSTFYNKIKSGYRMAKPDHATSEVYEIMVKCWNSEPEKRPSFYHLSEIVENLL
Protocol: as §1

cKit = biological target: T3, cKit (Homo sapiens, UniProt P10721); assay: cKit LanthaScreen TR-FRET kinase phosphorylation assay; settings: recombinant kinase domain
T3 construct: using the recombinant domains of cMet, cKit, ALK and PDGFRalpha kinases
T3 sequence (P10721 589-937 limits assumed): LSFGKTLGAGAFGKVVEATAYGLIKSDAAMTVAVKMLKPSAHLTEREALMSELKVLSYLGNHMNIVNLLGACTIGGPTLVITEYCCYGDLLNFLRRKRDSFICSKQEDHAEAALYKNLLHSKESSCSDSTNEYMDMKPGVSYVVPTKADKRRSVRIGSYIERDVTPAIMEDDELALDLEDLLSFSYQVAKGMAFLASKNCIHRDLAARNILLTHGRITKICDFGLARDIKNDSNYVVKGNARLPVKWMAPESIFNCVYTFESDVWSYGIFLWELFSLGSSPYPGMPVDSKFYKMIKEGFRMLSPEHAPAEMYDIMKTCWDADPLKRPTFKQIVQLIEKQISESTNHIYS
Protocol: as §1

cMet = biological target: T4, cMet (Homo sapiens, UniProt P08581); assay: cMet LanthaScreen TR-FRET kinase phosphorylation assay; settings: recombinant kinase domain
T4 construct: using the recombinant domains of cMet, cKit, ALK and PDGFRalpha kinases
T4 sequence (P08581 1078-1345 limits assumed): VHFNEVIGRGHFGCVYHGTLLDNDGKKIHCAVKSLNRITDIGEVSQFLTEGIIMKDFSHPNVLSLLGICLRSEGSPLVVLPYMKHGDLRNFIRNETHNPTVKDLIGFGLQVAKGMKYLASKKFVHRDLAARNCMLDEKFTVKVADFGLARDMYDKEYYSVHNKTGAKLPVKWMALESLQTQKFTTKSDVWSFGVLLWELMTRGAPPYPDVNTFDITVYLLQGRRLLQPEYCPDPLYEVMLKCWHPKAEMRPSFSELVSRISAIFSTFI
Protocol: as §1

GST-JAK2(808-1132) = biological target: T5, GST-JAK2(808-1132) (Homo sapiens, UniProt O60674); assay: JAK2 kinase assay (Caliper mobility shift, LabChip 3000)
T5 construct: GST-JAK2(808-1132); purchased Invitrogen (Carlsbad, USA) #4288
T5 sequence (O60674 808-1132): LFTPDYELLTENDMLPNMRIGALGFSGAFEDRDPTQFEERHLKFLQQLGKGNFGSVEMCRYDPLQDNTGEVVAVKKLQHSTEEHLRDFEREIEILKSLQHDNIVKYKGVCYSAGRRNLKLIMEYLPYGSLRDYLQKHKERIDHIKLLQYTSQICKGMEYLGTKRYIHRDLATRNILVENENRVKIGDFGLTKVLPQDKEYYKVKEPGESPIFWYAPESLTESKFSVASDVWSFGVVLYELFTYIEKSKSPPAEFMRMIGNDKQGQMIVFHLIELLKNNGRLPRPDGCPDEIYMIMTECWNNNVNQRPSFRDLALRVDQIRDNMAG
In short: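 Eight-point compound series (final 10–0.003 μM) tested on purchased GST-JAK2 kinase domain (808-1132). Peptide FITC-JAK3tide plus ATP reacted 60 min, 30 °C, then quenched with EDTA; turnover from charge-based separation of substrate and product.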

T1 sequence (Q9UM73 1116-1392 limits assumed, species assumed): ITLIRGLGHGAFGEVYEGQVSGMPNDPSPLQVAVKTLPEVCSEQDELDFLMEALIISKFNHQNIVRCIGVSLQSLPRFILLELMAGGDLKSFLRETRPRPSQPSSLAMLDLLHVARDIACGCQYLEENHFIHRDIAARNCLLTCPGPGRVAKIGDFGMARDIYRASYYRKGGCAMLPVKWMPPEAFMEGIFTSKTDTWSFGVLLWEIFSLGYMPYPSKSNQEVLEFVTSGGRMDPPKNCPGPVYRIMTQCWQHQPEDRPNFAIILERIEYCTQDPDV

| SMILES | IC50 (ALK) | IC50 (PDGFRalpha) | IC50 (cKit) | IC50 (cMet) | IC50 (GST-JAK2(808-1132)) | IC50 (GST-JAK2(808-1132); Table 3) |
| --- | --- | --- | --- | --- | --- | --- |
| CC1(C)NCCN(c2cc(Nc3ncc4ccn(-c5cc(F)c(CN6CCOCC6)c(F)c5)c4n3)ccn2)C1=O [Example 503, 1-{4-[7-(3,5-Difluoro-4-morpholin-4-ylmethyl-phenyl)-7H-pyrrolo[2,3-d]pyrimidin-2-ylamino]-pyridin-2-yl}-3,3-dimethyl-piperazin-2-one] | > 10 µM | > 10 µM | 9.5 µM | 6.1 µM | ≤ 0.003 µM | < 0.003 µM |
| Cc1ccc(Nc2ncc3ccn(-c4ccc(C(=O)N5CCN(CCO)CC5)cc4)c3n2)cc1C [Example 300, {4-[2-(3,4-Dimethyl-phenylamino)-pyrrolo[2,3-d]pyrimidin-7-yl]-phenyl}-[4-(2-hydroxy-ethyl)-piperazin-1-yl]-methanone] | > 10 µM | 7.7 µM | 3.4 µM | > 10 µM | 0.0175 µM | 0.0175 µM |
| COCc1c(F)cc(-n2ccc3cnc(Nc4ccc(N5CCN(C)CC5)nc4)nc32)cc1F [Example 446, [7-(3,5-Difluoro-4-methoxymethyl-phenyl)-7H-pyrrolo[2,3-d]pyrimidin-2-yl]-[6-(4-methyl-piperazin-1-yl)-pyridin-3-yl]-amine] | > 10 µM | 7.45 µM | 2.65 µM | 6 µM | 0.0043 µM | 0.0043 µM |
| COCc1ccc(Nc2ncc3ccn(-c4cc(F)c(CN5CCS(=O)(=O)CC5)c(F)c4)c3n2)cc1 [Example 184, {7-[4-(1,1-Dioxido-thiomorpholin-4-ylmethyl)-3,5-difluoro-phenyl]-7H-pyrrolo[2,3-d]pyrimidin-2-yl}-(4-methoxymethyl-phenyl)-amine] | > 10 µM | > 10 µM | > 10 µM | > 10 µM | < 0.003 µM | < 0.003 µM |
| CN1CCN(C(=O)c2cccc(Nc3ncc4ccn(-c5cc(F)c(CN6CCOCC6)c(F)c5)c4n3)c2)CC1 [Example 203, {3-[7-(3,5-Difluoro-4-morpholin-4-ylmethyl-phenyl)-7H-pyrrolo[2,3-d]pyrimidin-2-ylamino]-phenyl}-(4-methyl-piperazin-1-yl)-methanone] | > 10 µM | > 10 µM | 4.7 µM | 6.9 µM | 0.0074 µM | 0.0064 µM |
| CN1CCN(c2ccc(Nc3ncc4ccn(-c5cc(F)c(CN6CCS(=O)(=O)CC6)c(F)c5)c4n3)nc2)CC1 [Example 440, {7-[4-(1,1-Dioxido-thiomorpholin-4-ylmethyl)-3,5-difluoro-phenyl]-7H-pyrrolo[2,3-d]pyrimidin-2-yl}-[5-(4-methyl-piperazin-1-yl)-pyridin-2-yl]-amine] | > 10 µM | > 10 µM | > 10 µM | > 10 µM | 0.0032 µM | 0.0032 µM |
| COc1cc(Nc2ncc3ccn(-c4ccc(C(=O)N5CCOCC5)c(F)c4)c3n2)ccc1F [Example 151, {2-Fluoro-4-[2-(4-fluoro-3-methoxy-phenylamino)-pyrrolo[2,3-d]pyrimidin-7-yl]-phenyl}-morpholin-4-yl-methanone] | > 10 µM | > 10 µM | > 10 µM | > 10 µM | 0.0057 µM | 0.0057 µM |
| Cn1cc(Nc2ncc3ccn(-c4ccc(CC(=O)N5CCOCC5)cc4)c3n2)cn1 [Example 301, 2-{4-[2-(1-Methyl-1H-pyrazol-4-ylamino)-pyrrolo[2,3-d]pyrimidin-7-yl]-phenyl}-1-morpholin-4-yl-ethanone] | > 10 µM | 5.6 µM | 4.75 µM | 3.6 µM | < 0.003 µM | < 0.003 µM |
| Cc1ccc(Nc2ncc3ccn(-c4ccc(C(=O)N5CCOCC5)cc4)c3n2)cn1 [Example 238, {4-[2-(6-Methyl-pyridin-3-ylamino)-pyrrolo[2,3-d]pyrimidin-7-yl]-phenyl}-morpholin-4-yl-methanone] | > 10 µM | 6.6 µM | > 10 µM | 8.2 µM | 0.0111 µM | 0.0111 µM |
| Cc1ccc(Nc2ncc3ccn(-c4cc(F)c(CN5CCNC(=O)C5)c(F)c4)c3n2)cc1CN1CCNCC1 [Example 382, 4-{2,6-Difluoro-4-[2-(4-methyl-3-piperazin-1-ylmethyl-phenylamino)-pyrrolo[2,3-d]pyrimidin-7-yl]-benzyl}-piperazin-2-one] | > 10 µM | 7.7 µM | 1.1 µM | 2.4 µM | 0.0035 µM | 0.0035 µM |
| Cc1cc(Nc2ncc3ccn(-c4ccc(C(=O)N5CCOCC5)c(F)c4)c3n2)nn1C [Example 311, {4-[2-(1,5-Dimethyl-1H-pyrazol-3-ylamino)-pyrrolo[2,3-d]pyrimidin-7-yl]-2-fluoro-phenyl}-morpholin-4-yl-methanone] | > 10 µM | > 10 µM | > 10 µM | > 10 µM | 0.031 µM | 0.031 µM |
| Cc1ccc(Nc2ncc3ccn(-c4cc(F)c(CN5CCOCC5)c(F)c4)c3n2)cc1CN1CCNCC1 [Example 332, [7-(3,5-Difluoro-4-morpholin-4-ylmethyl-phenyl)-7H-pyrrolo[2,3-d]pyrimidin-2-yl]-(4-methyl-3-piperazin-1-ylmethyl-phenyl)-amine] | 9.05 µM | 6.7 µM | 1.55 µM | 7.57 µM | ≤ 0.003 µM | – |
| CC(C)Oc1ccc(Nc2ncc3ccn(-c4ccc(C#N)cc4)c3n2)cc1 [Example 96, 4-[2-(4-Isopropoxy-phenylamino)-pyrrolo[2,3-d]pyrimidin-7-yl]-benzonitrile] | > 10 µM | > 10 µM | > 10 µM | > 10 µM | 0.0485 µM | 0.0485 µM |
| C[C@@H]1CN(c2ccc(Nc3ncc4ccn(-c5ccc(NS(C)(=O)=O)cc5)c4n3)cn2)C[C@H](C)N1 [Example 380, N-(4-{2-[6-(cis-3,5-Dimethyl-piperazin-1-yl)-pyridin-3-ylamino]-pyrrolo[2,3-d]pyrimidin-7-yl}-phenyl)-methanesulfonamide] | > 10 µM | 5.3 µM | 1.7 µM | 5.4 µM | 0.0032 µM | 0.0032 µM |
| Fc1cc(-n2ccc3cnc(Nc4ccnc(CN5CCNCC5)c4)nc32)cc(F)c1CN1CCOCC1 [Example 372, [7-(3,5-Difluoro-4-morpholin-4-ylmethyl-phenyl)-7H-pyrrolo[2,3-d]pyrimidin-2-yl]-(2-piperazin-1-ylmethyl-pyridin-4-yl)-amine] | > 10 µM | > 10 µM | 5.7 µM | > 10 µM | 0.0047 µM | 0.0047 µM |
